Reference: PMC4724246 (Molecular cell, 2015)

Legend:
[1] = target: MCM ΔC (Saccharolobus islandicus, UniProt F0NF15); test: colorimetric phosphate release ATPase assay; format: biochemical; conditions: 1 mM ATP, 10 mM magnesium acetate, pH 7.9, 50 °C
[2] = target: the molecule itself; test: SEC

Molecule	colorimetric phosphate release ATPase assay [1]	stoichiometry N [2]
Nc1ncnc2c1ncn2[C@@H]1O[C@H](COP(=O)(O)OP(=O)(O)OP(=O)(O)O)[C@@H](O)[C@H]1O [ATP]	loss of the wH domain results in a marked activation of the ATPase activity	
MCM, wild-type (S. islandicus) (natural protein, UniProt F0NF15 1-686, looked up) MEIPSKQIDYRDLFIEFLTTFKNTNNQNKYIERINELIAYRKKSLIVEFSDILSFNENLAYEIINNTKIVLPILEGALYDHILQLDPTYQRDIEKVHVRIVGIPRVIELRKIRSTDIDKLITIDGILVKVTPVKERIYKATYKHIHPDCMQEFEWPEDEEMPEILEMPTICPKCGKPGQFRLIPEKTKLIDWQKAVIQERPEEVPSGQLPRQLEIILEDDLVDSARPGDRVKVTGILEIKQDSPIKRGSRAVFDIYMKVSSIEVSQKVLDEVTISEEDEKKIKDLAKDPWIRDRIIASIAPSIYGHWELKEALALALFGGVPKVLEDTRIRGDIHILIIGDPGTAKSQMLQFISRVAPRAVYTTGKGSTAAGLTAAVVREKGTGEYYLEAGALVLADGGIAVIDEIDKMRDEDRVAIHEAMEQQTVSIAKAGIVAKLNARAAVIAAGNPKFGRYITERPVSDNINLPPTILSRFDLIFILKDQPGEQDRELANYILDVHSGKSTKNIIDIDTLRKYIAYARKYIIPKITSEAKNLITDFFVEMRKKSSETPDSPILITPRQLEALIRISEAYAKMALKTEVTREDAERAINIMRLFLESVGVDMESGKIDIDTIMTGKPKSAREKMMKILEIIDSLAVSSECAKVKDILKEAQQVGIEKSNIEKLLTDMRKSGIIYEAKPECYKKV		6
